Experimental data from patent US20240315994A1, “SMALL MOLECULE MODULATORS OF FERROPTOSIS” (ARPEGGIO BIOSCIENCES, INC., priority 2021, published 2024).

Assays:
[1] = system: HMOX1 expression in HT-1080 fibrosarcoma cells; test: HMOX1 induction by RT-qPCR in HT-1080 cells; type: cell-based
Procedure: We tested several of our ferroptosis-inducing compounds for their ability to rapidly induce HMOX1 by RT-qPCR. Briefly, HT-1080 fibrosarcoma cells were treated with either 10 µM or 5 µM of compound RSL3, 8216, 1962, 1816, or 3362 for four hours. RNA was isolated and reverse transcribed and HMOX1 expression quantified by qPCR. Each sample was normalized to an ACTB housekeeping gene control and fold change was calculated relative to a DMSO control.
We tested several of the ferroptosis-inducing compounds for their ability to rapidly induce expression of HMOX1. Briefly, HT-1080 fibrosarcoma cells were plated in 6-well dishes 24 hours prior to treatment with 5 μM of 8147, 6047, 3793, Rsl3, 6666 or 8216 with and without the addition of ferrostatin-1 to the media. Cells were harvested from the plate after 4 hours of compound treatment by adding Trizol reagent directly to the plate to lyse the cells and preserve the RNA. RNA was isolated using the Direct-zol 96-well RNA kit (Zymo cat #R2054). Subsequently purity and quantity of RNA in the samples were measured using a Nanodrop (Thermo Fisher cat #ND-ONE-W). RNA samples were normalized to 2 μg and reverse transcribed to cDNA using the Multiscribe High-Capacity Reverse Transcription kit (Thermo Fisher cat #4368814) following manufacturer's instructions. Quantitative real time PCR was carried out in triplicate using SYBR Select Master Mix (Thermo Fisher cat #4472903) following manufacturer's instructions with primers designed against HMOX1 and ActB from IDT. HMOX1 expression levels were normalized to ActB for each sample then fold change was determined against the vehicle control, DMSO.

[2] = system: HT-1080 fibrosarcoma cells; test: HT-1080 single-concentration cell viability screen (Cell Titer Glo); type: cell-based; details: 10 μM compound, 48 hours, duplicate, fraction of control
Text: To identify potential covalent inhibitors of GPX4, we screened a panel of 294 diverse small molecules from the Enamine covalent inhibitor library (Catalog No. CSL-10480-0-Z-10, Enamine, Monmouth, NJ). Each compound contains either a chloroacetamide or acrylamide moiety theoretically capable of forming a covalent bond with a selenocysteine. The small molecule compounds were selected for a diversity of backbone structures. The screening protocol used the cell viability assay Cell Titer Glo® (available from Promega, Madison, WI). Cell Titer Glo® is a luminescent cell viability that determines the number of viable cells in culture by quantifying ATP, which indicates the presence of metabolically active cells. Briefly, HT-1080 fibrosarcoma cells were plated 24 hours prior to treatment with 10 µM of each compound in the screening panel. Cell Titer Glo® was used to read out cell viability after 48 hours of compound exposure. Data was collected in duplicate.
To determine whether similar molecules could offer other starting points for a medicinal chemistry campaign, we screened 95 additional compounds that contain a similar base structure to that of 8216. Briefly, HT-1080 fibrosarcoma cells were treated with 10 µM of a compound for 48 hours and cell viability was measured by Cell Titer Glo®. Data was collected in duplicate. […]

[3] = system: HMOX1 gene transcription in IMR90 lung fibroblast cells; test: PRO-seq transcriptional response (HMOX1) in IMR90 cells; type: cell-based; details: one hour, RSL3 1 μM, ML162 1 μM, erastin 10 μM
Text: Expression of heme oxygenase 1 (HMOX1) mRNA may be used as a molecular response biomarker for induction of ferroptosis by direct inhibition of GPX4. To distinguish the transcriptional responses elicited by direct versus indirect inhibitors of GPX4, we profiled two direct GPX4 inhibitors, RSL3 and ML162, as well as one system Xc inhibitor, erastin, by Precision Run On followed by sequencing (PRO-seq) in IMR90 lung fibroblast cells. Briefly, IMR90 lung fibroblasts cells (a ferroptosis sensitive cell line) were treated with GPX inhibitors (RSL3 1 μM, ML162 1 μM) or system Xc inhibitor (erastin 10 µM) for one hour and samples were subjected to PRO-seq.

recombinant GPX4 protein = molecular target: T1, recombinant GPX4 protein (Homo sapiens, UniProt P36969); test: GPX4 inhibitor screening assay (Cayman Chemical cat #701880); type: biochemical; details: 25 μM, one hour incubation; RSL3 without the 14-3-3 adapter protein
T1 construct: purchased Cayman Chemical SO960203
T1 sequence (P36969 1-197): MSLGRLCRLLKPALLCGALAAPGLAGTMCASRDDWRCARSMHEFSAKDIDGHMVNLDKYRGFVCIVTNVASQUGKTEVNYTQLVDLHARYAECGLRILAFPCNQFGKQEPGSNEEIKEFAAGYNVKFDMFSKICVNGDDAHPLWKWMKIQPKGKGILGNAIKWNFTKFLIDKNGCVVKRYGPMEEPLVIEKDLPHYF
Procedure: To determine whether the five ferroptosis-inducing compounds (1816, 8216, 3362, 1962, and 0973) inhibit GPX4 enzymatic activity in vitro, we used a commercially available GPX4 inhibitor screening kit (Cayman Chemical cat #701880). This assay measures a compound's ability to prevent cumene hydroperoxide reduction by recombinant GPX4 protein. Briefly, the five ferroptosis-inducing compounds (25 μM) were incubated with recombinant GPX4 protein for one hour before being run in the Cayman Chemicals GPX4 inhibitor screening assay according to manufacturer's recommendations. The assay read out is a change in absorbance between NADPH and NADP. ML162 (25 μM) and RSL3 (25 μM) were used as positive control compounds.
An enzymatic assay that measures the reduction of […] by GPX4 was used to test the ability of compounds 8216, 6666, 8147, and 3793 to inhibit the activity of GPX4. The enzymatic assay was performed using a commercially available kit (Cayman cat #701880). The compounds were tested at 8 concentrations in duplicate with the compound being diluted following manufacturer's instructions. The enzymatic reaction was allowed to continue for 1 hour prior to reading out the kinetic shift in absorbance that occurs as result of GPX4 […].

COC(=O)c1ccc([C@@H]2c3[nH]c4ccccc4c3C[C@@H](C(=O)OC)N2C(=O)CCl)cc1 [RSL3, reference compound]
HMOX1 upregulation and rescue by ferrostatin-1 (RT-qPCR) ([1]; 5 μM, 4 hours, with and without ferrostatin-1): upregulation of HMOX1 which was rescued by the addition of ferrostatin-1, to varying degrees | HMOX1 induction (RT-qPCR) ([1]; 10 μM or 5 μM, four hours, normalized to ACTB, relative to DMSO): induces HMOX1 dose-dependently | Average relative cell viability [2]: 0.00933 | HMOX1 transcriptional activation (PRO-seq) [3]: robust transcriptional activation of the HMOX1 gene at one hour | reduction in GPX4 enzymatic activity (recombinant GPX4 protein): about 55%
